Assay results reported in patent US20250316716A1, “ELECTROCHEMICAL OXYGEN REDUCTION CATALYST” (TOYOTA JIDOSHA KABUSHIKI KAISHA, priority 2024, published 2025).

Tests used:
[1] = Alcohol solubility of the modifier; type: physicochemical; conditions: organic solvent or mixture, alcohol (diacetone alcohol or ethanol)
[2] = Water solubility of the modifier; type: physicochemical

**Q.** With `NC1=NC2=NC(N)=NC3=NC(N)=NC(=N1)N23` [Melem, melem] as the compound, how does the solubility [1] read?
**A.** < 3000 µg/mL

**Q.** And the solubility [2]?
**A.** < 3000 µg/mL

**Q.** With `Nc1nc(N)nc(N)n1` [Melamine, melamine] as the compound, how does the solubility [1] read?
**A.** ≥ 3000 µg/mL

**Q.** And the solubility [2]?
**A.** ≥ 3000 µg/mL
